{
  "source": "patent US12006297B2",
  "about": "“Antibacterial activity of functionalized dihydropyrimidines” (WiSys Technology Foundation, Inc., priority 2021, dated 2024)",
  "origin": "cited, not measured here",
  "key": {"[1]": {"test_system": "skin infections"}, "[2]": {"test_system": "MRSA", "details": "versus oxacillin and erythromycin"}, "[3]": {"target": "DHFR (Staphylococcus aureus, UniProt P0A017)", "sequence (P0A017 whole entry)": "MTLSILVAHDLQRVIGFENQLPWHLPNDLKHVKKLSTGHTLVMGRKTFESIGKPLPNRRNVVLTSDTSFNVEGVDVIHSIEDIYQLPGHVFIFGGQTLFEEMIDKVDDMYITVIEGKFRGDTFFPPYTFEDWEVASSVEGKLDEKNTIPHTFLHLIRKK"}},
  "data": [
    {"smiles": "COc1cc(Cc2cnc(N)nc2N)c2c(c1OC)OC(C1CC1)C=C2", "note": "(racemic) [Iclaprim]", "values": [
      {"measurement": "side effects", "setting": "[1]; clinical trials", "result": "mild to moderate side effects"},
      {"measurement": "efficacy versus vancomycin", "setting": "[1]; control of skin infections, phase 2 and 3 clinical trials", "result": "non-inferiority"}
    ]},
    {"smiles": "CCOC(=O)C1=C(CC)NC(N)=NC1c1cc(Cl)cc(Cl)c1O", "note": "(stereo not shown) [HAK-22, emmacin]", "values": [
      {"measurement": "MRSA growth inhibition compared with approved antibiotics", "setting": "[2]", "result": "inhibiting the growth of MRSA at concentrations lower than approved antibiotics"},
      {"measurement": "mechanism of DHFR inhibition", "setting": "[3]", "result": "unique allosteric uncompetitive mechanism"}
    ]}
  ]
}
